# In patent US20030032587A1, “Urocortin peptides” (The Salk Institute for Biological Studies, priority 1995, published 2003):
# Bridges are numbered along the chain shown (N, C = ends). Where no end group is shown, it is not given here. [ ]: non-standard residue; d: D form.
# Key:
# [1] = test system: mammalian mean arterial blood pressure; assay: in vivo test measuring elevation of mean arterial blood pressure as a result of iv injection; conditions: result in words; indicative of a Ucn antagonist
# Description: The peptide, Ucn(11-40), having the amino acid sequence (see SEQ ID NO: 8): […] is synthesized in the manner described in Example I. To evaluate the biological activity of a candidate peptide as a Ucn antagonist (which will be indicative of its effective binding to CRF receptors), the previously mentioned assay from Endocrinology, 91, supra, is run in the presence of a challenge dose of ovine CRF. […] An in vivo test measuring elevation of mean arterial blood pressure as a result of iv injection is also simply and straightforwardly performed.
# [2] = test system: rat anterior pituitary cells; assay: ACTH secretion by anterior pituitary cell cultures in the presence of a challenge dose of ovine CRF (antagonist test); assay type: cell-based; conditions: for inhibition of ACTH secretion in vitro, times as effective as the Standard Antagonist (confidence limits): challenge dose of ovine CRF, relative to [D-Phe12,Nle21,38]-r/hCRF(12-41); for bioactivity as Ucn antagonists: result in words, test not specified
# Description: (§1) A straightforward assay using rat anterior pituitary cells in monolayer culture can be carried out to determine whether a candidate peptide thereof will function as a CRF agonist and stimulate ACTH secretion by activating CRF receptors on such cells. The procedure which is used is that generally set forth in Endocrinology, 91, supra. A very similar assay is used to test for antagonistic properties, using a challenge dose of oCRF or the like.
# An in vivo test measuring elevation of mean arterial blood pressure as a result of iv injection is also simply and straightforwardly performed.
# [3] = test system: mammalian systemic blood pressure; assay: mammalian vasodilatory-hypotensive activity; assay type: in vivo; conditions: result in words
# [4] = test system: primary murine anterior pituitary cells; assay type: cell-based; conditions: for stimulates the secretion of ACTH and β-END-LI (β-endorphin): result in words; for ACTH secretion in vitro, times as effective as r/hCRF (confidence limits): anterior pituitary cell cultures, relative to r/hCRF
# Description: as §1
# To test the ability of purified Ucn or another candidate Ucn-like peptide to function as a CRF agonist and to promote ACTH production and/or secretion, cultures of dispersed primary murine anterior pituitary cells (0.15×10^6 cells/well are used), as generally described in Vale et al. Meth. Enzym., 103, 565-577 (1983), and in Endocrinology, 91, 562 (1972). These cultures are maintained in 0.5 ml/well of β-PJ (a reagent available from Kansas City Biochemicals) containing 2% fetal bovine serum. On the morning of culture day 5, the cells are washed 3 times with β-PJ containing 0.1% bovine serum albumin and then incubated for 1 hour at 37° C. in the same medium. The medium is then replaced with Ucn, or an analog thereof, diluted in β-PJ containing 0.1% bovine serum albumin. Incubations are terminated after 3 hours, at which time the medium is removed and stored at −20° C. until ACTH radioimmunoassays are performed using a suitable kit, such as that commercially available from Diagnostic Products Corporation of Los Angeles, Calif. Secreted ACTH is measured using Allfit computer program with results expressed as the average±s.e.m. of 3 replicate bioassays.
Substance,"vasodilatory-hypotensive activity, including lowering systemic blood pressure and stimulating the secretion of ACTH [3]",stimulates the secretion of ACTH and β-END-LI (β-endorphin) [4],"ACTH secretion in vitro, times as effective as r/hCRF (confidence limits) [4]",further results
H-D-Phe-His-Leu-Leu-Arg-Thr-Leu-Leu-Glu-Leu-Ala-Arg-Thr-Gln-Ser-Gln-Arg-Glu-Glu-Ala-Glu-Lys-Asn-Arg-Ile-Ile-Phe-Asp-Ser-Val-NH2 (H-[dF]HLLRTLLELARTQSQREEAEKNRIIFDSV-NH2; lactam 19-22 (inferred)),–,–,–,"vasoconstrictive activity causing elevation of mean arterial blood pressure [1]: significant mammalian vasoconstrictive activity; inhibition of ACTH secretion in vitro, times as effective as the Standard Antagonist (confidence limits) [2]: 10.34 (4.27-25.58)"
Ac-Pro-Ser-Leu-Ser-Ile-Asp-Leu-Thr-Phe-His-Leu-Leu-Arg-Thr-Leu-Leu-Glu-Leu-Ala-Arg-Thr-Gln-Ser-Gln-Arg-Glu-Arg-Ala-Glu-Gln-Asn-Arg-Ile-Ile-Phe-Asp-Ser-Val-NH2 (Ac-PSLSIDLTFHLLRTLLELARTQSQRERAEQNRIIFDSV-NH2) [[Ac-Pro^3]-hUcn(3-40)],causes vasodilatory-hypotensive activity,stimulates the secretion of ACTH and β-END-LI,–,–
H-D-Phe-His-Leu-Leu-Arg-Thr-Leu-Leu-Glu-Leu-Ala-Arg-Thr-Gln-Ser-Gln-Arg-Glu-Glu-Ala-D-Glu-Lys-Asn-Arg-Ile-Ile-Phe-Asp-Ser-Val-NH2 (H-[dF]HLLRTLLELARTQSQREEA[dE]KNRIIFDSV-NH2; lactam 19-22 (inferred)),–,–,–,"vasoconstrictive activity causing elevation of mean arterial blood pressure [1]: significant mammalian vasoconstrictive activity; inhibition of ACTH secretion in vitro, times as effective as the Standard Antagonist (confidence limits) [2]: 4.72 (2.19-10.00)"
H-D-Tyr-His-Leu-Leu-Arg-Thr-Leu-Leu-Glu-Leu-Ala-Arg-Thr-Gln-Ser-Gln-Arg-Glu-Glu-Ala-Glu-Lys-Asn-Arg-Ile-Ile-Phe-Asp-Ser-Val-NH2 (H-[dY]HLLRTLLELARTQSQREEAEKNRIIFDSV-NH2; lactam 19-22; SMILES CC[C@H](C)[C@H](NC(=O)[C@H](CCCNC(=N)N)NC(=O)[C@H](CC(N)=O)NC(=O)[C@@H]1CCCCNC(=O)CC[C@H](NC(=O)[C@H](CCC(=O)O)NC(=O)[C@H](CCCNC(=N)N)NC(=O)[C@H](CCC(N)=O)NC(=O)[C@H](CO)NC(=O)[C@H](CCC(N)=O)NC(=O)[C@@H](NC(=O)[C@H](CCCNC(=N)N)NC(=O)[C@H](C)NC(=O)[C@H](CC(C)C)NC(=O)[C@H](CCC(=O)O)NC(=O)[C@H](CC(C)C)NC(=O)[C@H](CC(C)C)NC(=O)[C@@H](NC(=O)[C@H](CCCNC(=N)N)NC(=O)[C@H](CC(C)C)NC(=O)[C@H](CC(C)C)NC(=O)[C@H](Cc2c[nH]cn2)NC(=O)[C@H](N)Cc2ccc(O)cc2)[C@@H](C)O)[C@@H](C)O)C(=O)N[C@@H](C)C(=O)N[C@@H](CCC(=O)O)C(=O)N1)C(=O)N[C@H](C(=O)N[C@@H](Cc1ccccc1)C(=O)N[C@@H](CC(=O)O)C(=O)N[C@@H](CO)C(=O)N[C@H](C(N)=O)C(C)C)[C@@H](C)CC),–,–,–,"vasoconstrictive activity causing elevation of mean arterial blood pressure [1]: significant mammalian vasoconstrictive activity; inhibition of ACTH secretion in vitro, times as effective as the Standard Antagonist (confidence limits) [2]: 4.01 (2.32-7.05)"
H-[dY]DNPSLSIDLTFHLLRTLLELARTQSQRERAEQNRIIFDSV-NH2 [[D-Tyr^∘]hUcn(1-40)],significant mammalian vasodilatory-hypotensive activity,–,1.23 (0.60-2.54),–
[Ac-Thr^10]Ucn(10-40),–,–,–,bioactivity as Ucn antagonists [2]: bioactivity as Ucn antagonists
Ac-Pro-Ser-Leu-Ser-Ile-Asp-Leu-Thr-D-Phe-His-Leu-Leu-Arg-Thr-Leu-Leu-Glu-Leu-Ala-Arg-Thr-Gln-Ser-Gln-Arg-Glu-Glu-Ala-D-Glu-Lys-Asn-Arg-Ile-Ile-Phe-Asp-Ser-Val-NH2 (Ac-PSLSIDLT[dF]HLLRTLLELARTQSQREEA[dE]KNRIIFDSV-NH2; lactam 27-30 (inferred)),causes vasodilatory-hypotensive activity,stimulates the secretion of ACTH and β-END-LI,6.14 (2.83-14.05),–
H-Asp-Asn-Pro-Ser-Leu-Ser-Ile-Asp-Leu-Thr-Phe-His-Leu-Leu-Arg-Thr-Leu-Leu-Glu-Leu-Ala-Arg-Thr-Gln-Ser-Gln-Arg-Glu-Arg-Ala-Glu-Gln-Asn-Arg-Ile-Ile-Phe-Asp-Ser-Val-NH2 (H-DNPSLSIDLTFHLLRTLLELARTQSQRERAEQNRIIFDSV-NH2) [Human Ucn(1-40)],significant mammalian vasodilatory-hypotensive activity,–,3.10 (1.41-6.65),–
H-Tyr-Asp-Asp-Pro-Pro-Leu-Ser-Ile-Asp-Leu-Thr-Phe-His-Leu-Leu-Arg-Thr-Leu-Leu-Glu-Leu-Ala-Arg-Thr-Gln-Ser-Gln-Arg-Glu-Arg-Ala-Glu-Gln-Asn-Arg-Ile-Ile-Phe-Asp-Ser-val-NH2 [[Tyr^∘]rUcn(1-40)],significant mammalian vasodilatory-hypotensive activity,–,2.20 (1.28-3.88),–
Ac-Pro-D-Ser-Leu-Ser-Ile-Asp-Leu-Thr-D-Phe-His-Leu-Leu-Arg-Thr-Leu-Leu-Glu-Leu-Ala-Arg-Thr-Gln-Ser-Gln-Arg-Glu-Glu-Ala-Glu-Lys-Asn-Arg-Ile-Ile-Phe-Asp-Ser-Val-NH2 (Ac-P[dS]LSIDLT[dF]HLLRTLLELARTQSQREEAEKNRIIFDSV-NH2; lactam 27-30 (inferred)),causes vasodilatory-hypotensive activity,stimulates the secretion of ACTH and β-END-LI,5.69 (2.43-14.49),–
Ac-Pro-D-Pro-Leu-Ser-Ile-Asp-Leu-Thr-D-Phe-His-Leu-Leu-Arg-Thr-Leu-Leu-Glu-Leu-Ala-Arg-Thr-Gln-Ser-Gln-Arg-Glu-Glu-Ala-Glu-Lys-Asn-Arg-Ile-Ile-Phe-Asp-Ser-Val-NH2 (Ac-P[dP]LSIDLT[dF]HLLRTLLELARTQSQREEAEKNRIIFDSV-NH2; lactam 27-30 (inferred)),causes vasodilatory-hypotensive activity,stimulates the secretion of ACTH and β-END-LI,9.90 (4.48-22.85),–
"Ucn (10-40) (TFHLLRTLLELARTQSQRERAEQNRIIFDSV; ends and bridges not checked; UniProt P55089 92-122, looked up, fragment)",–,–,–,bioactivity as Ucn antagonists [2]: bioactivity as Ucn antagonists
